{"source": "paper PMC2990104", "about": "(Advances in Pharmacological Sciences, 2010)", "assay_type_in_all_cases": "cell-based", "key": {"[1]": {"target": "T1, L-type calcium channel (LTCC) (Rattus norvegicus, UniProt P22002)", "T1 construct": "gene Cacna1c; native channel in A7r5 cells", "T1 sequence (P22002 whole entry)": "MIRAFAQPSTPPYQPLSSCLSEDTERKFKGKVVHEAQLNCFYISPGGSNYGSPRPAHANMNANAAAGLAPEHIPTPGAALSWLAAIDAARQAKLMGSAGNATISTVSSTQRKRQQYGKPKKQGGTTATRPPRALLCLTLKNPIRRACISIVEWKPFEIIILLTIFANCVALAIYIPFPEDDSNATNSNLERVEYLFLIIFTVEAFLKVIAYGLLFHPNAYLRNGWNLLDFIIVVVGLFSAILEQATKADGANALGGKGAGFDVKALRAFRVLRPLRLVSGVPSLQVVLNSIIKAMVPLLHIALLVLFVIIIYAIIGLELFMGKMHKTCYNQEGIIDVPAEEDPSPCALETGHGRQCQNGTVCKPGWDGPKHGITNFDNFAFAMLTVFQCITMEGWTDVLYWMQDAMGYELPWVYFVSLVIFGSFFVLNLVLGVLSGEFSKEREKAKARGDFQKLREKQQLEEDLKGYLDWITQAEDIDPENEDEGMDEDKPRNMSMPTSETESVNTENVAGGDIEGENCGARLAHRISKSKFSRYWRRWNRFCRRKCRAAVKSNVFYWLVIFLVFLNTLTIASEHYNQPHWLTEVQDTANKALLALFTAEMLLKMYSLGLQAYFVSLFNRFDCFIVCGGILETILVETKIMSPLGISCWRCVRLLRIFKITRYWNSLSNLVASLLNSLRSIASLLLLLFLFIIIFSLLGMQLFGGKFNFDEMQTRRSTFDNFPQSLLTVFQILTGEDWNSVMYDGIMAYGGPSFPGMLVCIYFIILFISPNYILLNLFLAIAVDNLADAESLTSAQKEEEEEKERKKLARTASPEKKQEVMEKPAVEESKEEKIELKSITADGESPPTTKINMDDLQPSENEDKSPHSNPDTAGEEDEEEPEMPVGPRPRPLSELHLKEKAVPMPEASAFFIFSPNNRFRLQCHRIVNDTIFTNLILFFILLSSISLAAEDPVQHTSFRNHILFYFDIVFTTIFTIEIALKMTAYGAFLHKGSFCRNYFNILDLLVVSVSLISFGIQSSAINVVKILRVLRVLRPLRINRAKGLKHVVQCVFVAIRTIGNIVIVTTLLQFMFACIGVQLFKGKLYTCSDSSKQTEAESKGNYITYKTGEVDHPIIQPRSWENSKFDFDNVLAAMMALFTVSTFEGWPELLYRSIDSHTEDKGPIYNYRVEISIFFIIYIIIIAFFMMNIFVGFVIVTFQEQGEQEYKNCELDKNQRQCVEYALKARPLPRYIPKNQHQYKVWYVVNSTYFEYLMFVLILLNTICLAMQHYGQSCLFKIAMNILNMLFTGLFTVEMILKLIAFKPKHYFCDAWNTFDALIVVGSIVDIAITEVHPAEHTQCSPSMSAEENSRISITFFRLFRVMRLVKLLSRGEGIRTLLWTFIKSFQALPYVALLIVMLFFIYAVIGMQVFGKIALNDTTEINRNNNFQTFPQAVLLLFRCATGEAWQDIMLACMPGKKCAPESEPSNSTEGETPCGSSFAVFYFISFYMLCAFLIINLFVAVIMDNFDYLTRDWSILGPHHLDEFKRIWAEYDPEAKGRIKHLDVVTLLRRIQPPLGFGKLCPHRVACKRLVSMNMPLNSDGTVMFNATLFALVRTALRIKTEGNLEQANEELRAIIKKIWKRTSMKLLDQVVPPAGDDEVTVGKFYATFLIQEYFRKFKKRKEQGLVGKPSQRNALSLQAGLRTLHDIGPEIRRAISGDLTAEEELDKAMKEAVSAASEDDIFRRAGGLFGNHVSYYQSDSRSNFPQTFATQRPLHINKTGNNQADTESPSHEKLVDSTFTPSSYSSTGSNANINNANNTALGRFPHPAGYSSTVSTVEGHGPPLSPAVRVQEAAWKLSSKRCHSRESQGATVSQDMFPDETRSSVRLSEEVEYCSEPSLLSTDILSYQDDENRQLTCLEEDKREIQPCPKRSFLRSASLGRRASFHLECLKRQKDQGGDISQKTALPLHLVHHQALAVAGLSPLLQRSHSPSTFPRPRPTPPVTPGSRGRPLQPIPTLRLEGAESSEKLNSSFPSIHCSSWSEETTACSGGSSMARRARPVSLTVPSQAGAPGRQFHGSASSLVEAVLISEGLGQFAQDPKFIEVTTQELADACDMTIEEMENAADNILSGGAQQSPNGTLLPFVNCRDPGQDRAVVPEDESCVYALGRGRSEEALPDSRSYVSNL", "test": "whole-cell patch clamp of ICa,L in A7r5 cells (stimulation)", "conditions": "read-out: % stimulation above basal at 10 nM"}, "[2]": {"target": "T1, L-type calcium channel (LTCC)", "test": "whole-cell patch clamp of ICa,L in A7r5 cells", "conditions": "read-out: % of basal current at 1 μM"}, "[3]": {"target": "T1, L-type calcium channel (LTCC)", "test": "whole-cell patch clamp of basal and BAY-stimulated ICa,L in A7r5 cells"}}, "data": [{"smiles": "COC(=O)C1=C(C)NC(C)=C([N+](=O)[O-])[C@H]1c1ccccc1C(F)(F)F", "note": "[BAY, (−)-Bay K8644]", "values": [{"measurement": "activation at 0.01 µM", "setting": "[1]", "result": "74.8 ± 5.7", "unit": "%"}]}, {"smiles": "COC(=O)C1=C(C)NC(C)=C(C(=O)OC)C1c1ccccc1[N+](=O)[O-]", "note": "[NIF, nifedipine]", "values": [{"measurement": "activity at 1 µM", "setting": "[2]", "result": "20.6 ± 2.2", "unit": "%"}]}, {"smiles": "CC(C)CCC[C@@H](C)[C@H]1CC[C@H]2[C@@H]3CC=C4C[C@@H](O)CC[C@]4(C)[C@H]3CC[C@]12C", "note": "[cholesterol]", "values": [{"measurement": "inhibition at 100 µM", "setting": "[3]", "result": "73.9 ± 16.8", "unit": "%"}]}]}
